Data as given in US20110020457A1, “POLYMER-SURFACTANT NANOPARTICLES FOR SUSTAINED RELEASE OF COMPOUNDS” (Wayne State University, priority 2006, published 2011).
Entries after “also recorded” stand apart in the source; their conditions may differ. Where two headings read alike, the source gives them in different places.

Legend:
[1] = cited from earlier work
[2] = also after multiple dosing; cited from earlier work
[3] = pH 7.4
Procedure: In vitro release studies: In vitro release of nanoparticle-encapsulated drug was determined under sink conditions. The term “sink conditions” refers to release conditions in which the volume of the buffer used is sufficient to dissolve all of the drug present in the delivery system. Such conditions are used to assure that the amount of drug released is not limited by the degree of solubility in the buffer or solvent used. Nanoparticles (˜5 mg) were dispersed in 0.5 ml of phosphate-buffered saline (PBS, pH 7.4, 0.15M) and suspended in DispoDialyzer® (10 kDa MWCO, Pierce) dialysis tubes. These were then placed in a 15-ml centrifuge tube containing 10 ml of PBS. The whole assembly was shaken at 100 rpm and 37.0±0.5° C. in an orbital shaker (Brunswick Scientific, C24 incubator shaker, NJ). […] Drug concentration in the release samples was determined as in drug loading determinations. Stability of different drugs under in vitro release conditions was determined and the drug release profile was corrected for degradation, if any.
Initially, the stability of these drugs under the release conditions (PBS, pH 7.4 and 37° C.) were investigated.

[4] = test system: JC tumors (doxorubicin-resistant mammary adenocarcinoma); assay: Tumor growth after combination PDT and chemotherapy in drug-resistant tumor; format: in vivo, female Balb/c mice; details: single i.v. dose, 4 mg/kg doxorubicin
Description: FIG. 16. Nanoparticle-mediated combination PDT and chemotherapy overcame tumor drug resistance in vivo. […] About twenty four hours after treatment administration, tumors were exposed to light of 665 nm wavelength (50 J/cm^2). Animals were then monitored for tumor growth. The results are shown as percent increase in tumor volume as a function of time after treatment (days), with the various treatment protocols.
Nanoparticle-mediated combination PDT-chemotherapy inhibited drug-resistant tumor growth. The in vivo efficacy of nanoparticle-mediated combination chemo- and photodynamic therapy was studied in a mouse model of drug-resistant tumor. Drug-resistant JC tumors (doxorubicin-resistant mammary adenocarcinoma) grown subcutaneously in female Balb/c mice were used in these experiments. Mice were administered a single i.v. dose of the different treatments. […] About 24 hrs after treatment administration, tumors were exposed to light of 665 nm wavelength (50 J/cm^2). Animals were then monitored for tumor growth.

NCI-ADR/RES cells [5] = assay: Cytotoxicity in drug-resistant cells, MTS assay (Example 5); format: cell-based
Procedure: (§1) For cytotoxicity studies, NCI-ADR/RES or MCF-7 cells were seeded in 96-well plates at a seeding density of 5000-10000 cells per well per 0.1 mL of medium and allowed to attach overnight. […] Untreated cells and empty nanoparticles were used as controls. […] Cytotoxicity was determined over a period of 10 days using a commercially available MTS assay (Promega). Results were analyzed by using an ANOVA. Differences were considered significant at P<0.05.

MCF-7 cells [6] = assay: Cytotoxicity in drug-sensitive cells, MTS assay (Example 5); format: cell-based, Human; details: doxorubicin in solution
Procedure: as §1

NCI-ADR/RES cells [7] = assay: Intracellular distribution of doxorubicin by fluorescence microscopy; format: cell-based; details: 2.5 μg/mL doxorubicin, 2 h
Procedure: At the end of the treatment period, cells were washed three times with cold PBS and then lysed using 100 μL of cell culture lysis reagent (CCLR; Promega). The protein content of the cell lysates was determined using the Pierce (Rockford, Ill.) BCA protein assay. Cell lysates were then mixed with 300 μL of methanol and incubated at 37° C. for 6 h at 100 rpm. Samples were centrifuged at 14 000 rpm for 10 min at 4° C. The concentration of rhodamine in the methanolic extract was determined by HPLC as described before. Data were expressed as rhodamine accumulation normalized to total cell protein. For fluorescence microscopy, the uptake and intracellular distribution of doxorubicin in NCI-ADR/RES cells were determined qualitatively using fluorescence microscopy. Cells ([…]) were seeded on coverslips placed in 35 mm dishes.
At 2 h post-treatment, cells were rinsed with drug-free medium and incubated with 75 nM Lysotracker Green (Invitrogen) for 30 min. Cells were then washed and counterstained with DAPI (4′,6-diamidino-2-phenylindole, Invitrogen). Images were captured with a BX60 Olympus fluorescence microscope. Images captured using red, blue, and green filters were overlaid to determine localization and association of doxorubicin-associated red fluorescence in the nucleus and endolysosomes, respectively.

ROS = assay: Nanoparticle-mediated ROS generation ex vitro (APF fluorescence); details: photo-activated
Description: PBS and empty nanoparticles were used as negative controls. To determine the effect of dose of light on the amount of ROS generated, above samples were photo-activated with 10 consecutive doses of light (1200 mJ/cm^2 per dose) measuring fluorescence after each illumination. […] Experiments performed as above but without light irradiation were used as light negative controls.

MCF-7 cells [8] = assay: Cytotoxicity of methylene blue PDT; details: 0.3 or 0.6 μM, no light

Q: Which results are given for CCCCC(CC)COC(=O)CC(C(=O)OCC(CC)CCCC)S(=O)(=O)[O-].[Na+] (stereo not drawn) [AOT, dioctylsodium sulfosuccinate]?
A: pKa ([1]; sulfonic group): < 1; Elimination and accumulation in the body [2]: easily removed from the body through renal elimination, and does not accumulate

Q: Which “Stability under the release conditions” value [3] does the source give for Clc1cccc(Cl)c1N=C1NCCN1 [Clonidine] here?
A: stable

Q: Which “Stability under the release conditions” value [3] does the source give for O=C(O)Cc1ccccc1Nc1c(Cl)cccc1Cl [Diclofenac, diclofenac sodium] here?
A: stable

Q: For COc1cccc2c1C(=O)c1c(O)c3c(c(O)c1C2=O)C[C@@](O)(C(=O)CO)C[C@@H]3O[C@H]1C[C@H](N)[C@H](O)[C@H](C)O1 [Doxorubicin], which “Stability under the release conditions” value [3] is on record?
A: biphasic, first-order degradation profile

Q: What about the “Therapeutic effect on tumor growth” value [4] of the same compound?
A: did not show a significant therapeutic effect

Q: What about the “Concentration required to induce cytotoxicity” value (NCI-ADR/RES cells [5]; doxorubicin in solution, drug-resistant cells) of the same compound?
A: > 50 µg/mL

Q: What about the “Cytotoxicity in drug-sensitive cells” value (MCF-7 cells [6]) of the same compound?
A: dose-dependent cytotoxicity

Q: And the “Doxorubicin in nuclei of cells” value (NCI-ADR/RES cells [7])?
A: No or insignificant doxorubicin fluorescence

Q: What about the “Intracellular distribution of doxorubicin” value (NCI-ADR/RES cells [7]; listed as Free doxorubicin) of the same compound?
A: diffuse distribution within the cells, with a significant fraction appearing in vesicles located near the cell membrane; also recorded: present near the cell surface

Q: And the pKa [1]?
A: ~8.2

Q: What about the Ionized fraction ([1]; pH 7.4) of the same compound?
A: about 86%

Q: For COc1ccc(CCN(C)CCCC(C#N)(c2ccc(OC)c(OC)c2)C(C)C)cc1OC (stereo not drawn) [Verapamil], which “Effect on resistance to doxorubicin” value (NCI-ADR/RES cells [5]; verapamil 23.0 μg/mL with doxorubicin 0.4 μg/mL in solution) is on record?
A: reversed the resistance to doxorubicin

Q: For CN(C)c1ccc2nc3ccc(=[N+](C)C)cc-3sc2c1 [methylene blue, Methylene blue], which “Increase in fluorescence at 0.6 μM compared to 0.3 μM” value (ROS) is on record?
A: 2 fold

Q: And the “Cytotoxic effect without light-activation” value (MCF-7 cells [8])?
A: no significant effect
